{"source": "paper PMC4026539", "about": "“Improved Photodynamic Efficacy of Zn(II) Phthalocyanines via Glycerol Substitution” (PLoS ONE, 2014)", "key": {"[1]": {"assay": "UV-visible absorption spectra in different solvents", "format": "physicochemical", "design": "λmax: unit not given beside the values", "conditions": "10 µM", "description": "The UV-visible (10 µM) and fluorescence emission spectra (5 µM) of phthalocyanines in different solvents were measured using SpectraMax M4 microplate reader (Molecular Devices, CA). UV-visible spectra were collected for wavelengths ranging from 350–800 nm and molar extinction coefficient (ε) for each compound was determined. Meanwhile, the fluorescence emission spectra of the compounds were recorded at 650–800 nm following excitation at their respective maximal absorption (λmax). The fluorescence quantum yields (φF) were calculated by using the following formula: φF = φFstd (F×Astd)/[…] where, F and Fstd refer to the area under the fluorescence curve of sample and standard, respectively. A and Astd refer to the absorbance of sample and standard compound at their excitation wavelengths respectively. ZnPcS4 with φFstd = 0.07 (DMSO) was used as reference."}, "[2]": {"assay": "Log P partition coefficient, shake-flask method", "format": "physicochemical", "conditions": "Octanol-1/H2O, room temperature", "description": "Phthalocyanines were prepared in presaturated Octanol-1 (Oct) or H2O depending on their solubility (ZnPcS4, phthalocyanines 1 and 2 in H2O; phthalocyanine 3 in Oct) with concentrations ranging from 1–20 µM. […] The glass tube was left to stand for 1–2 h at room temperature. The absorbance of the phthalocyanine was measured before addition of the other solvent and also after incubation. To obtain log P value, calculations were done using the formula: log P = log [COct/CH2O] where, COct and CH2O represent concentrations of phthalocyanine in Oct and H2O, respectively. Partition coefficient (log P) is defined as the ratio of concentrations of a dissolved substance in a two-phase system consisting of two immiscible solvents e.g. n-octanol and water at equilibrium. It reflects the level of hydrophilicity and hydrophobicity of a compound, which determines the permeability of the compound across the lipid bilayers of cell membrane. In this study, the log P values of the phthalocyanines were measured using the shake-flask method."}, "HSC-2 cells": {"system": "HSC-2 cells", "assay": "Cellular uptake study by flow cytometry", "format": "cell-based, human", "conditions": "10 µM", "description": "HSC-2 cells were plated overnight in 6-well plates (1×10^5 cells/well) in MEM media. Cells were incubated with 10 µM of phthalocyanine 1, 2, 3 or ZnPcS4 for various time intervals. Following incubation, cells were washed twice with PBS, collected by trypsinization and resuspended in phenol red-free MEM media. The mean fluorescence signal for 10 000 cells were analyzed using FACSCalibur flow cytometer (Becton Dickinson, NJ) with FL4 channel (excitation 635 nm, bandpass filter 661/16 nm) and data collected were translated into relative concentration using the formula F = k * QE * Po * (2.303 *ε * b * c). All assays were performed in triplicates. F = measured fluorescence intensity, k = geometric instrumental factor, QE = quantum efficiency (ratio of photons being emitted to photons being absorbed) and Po = radiant power of the excitation source (wavelength-dependent molar absorptivity coefficient). b and c are as being used in the Beer-Lambert law, where b = path length, and c = concentration of the analyte."}, "[3]": {"system": "HCT-116 cells human colon carcinoma", "assay": "In vitro phototoxicity assay (MTT)", "format": "cell-based", "conditions": "2 h incubation, MTT after 48 h", "description": "(§1) MCF-7 human breast carcinoma and HCT-116 cells human colon carcinoma cell lines were obtained from American Tissue Culture Collection (Virginia, USA), whereas HSC-2 human oral squamous carcinoma cell line was purchased from Health Science Research Resources Bank, (Osaka, Japan). Approximately 3000–4000 cells/well were seeded in 96-well plate and incubated overnight for cell adherence and growth. Cells were then treated with phthalocyanines 1, 2, 3 or ZnPcS4 with concentrations ranging from 0.01 to 100 µM and were incubated for 2 h before irradiated with 4.0 J/cm^2 of light filtered with Roscolux #26 Light Red (>580 nm) (Rosco, NY) membrane filter at a fluence rate of 7.5 mW/cm^2 for 10 min. Illumination was performed in the presence of photosensitizer in the media. The cells were further incubated for 48 h before cell viability was assessed by the MTT assay. For MTT assay, 20 µl of MTT solution (5 mg/ml) were added to each well and incubated for 4 h. The medium was removed and replaced with 100 µl of DMSO to dissolve the formazan crystal formed and the absorbance was read at 570 nm with a microplate reader. The percentage of cell viability was determined relative to untreated control and the half maximal inhibitory concentration (IC50) values were determined. Dark toxicity for each phthalocyanine was also determined in parallel."}, "[4]": {"system": "HSC-2 human oral squamous carcinoma cell line", "assay": "In vitro phototoxicity assay (MTT)", "format": "cell-based", "conditions": "2 h incubation, MTT after 48 h", "description": "as §1"}, "[5]": {"system": "MCF-7 human breast carcinoma", "assay": "In vitro phototoxicity assay (MTT)", "format": "cell-based", "conditions": "2 h incubation, MTT after 48 h", "description": "as §1"}, "[6]": {"system": "MCF-7, HCT-116 and HSC-2 cancer cell-lines", "assay": "In vitro phototoxicity assay (MTT), panel of cancer cell lines", "format": "cell-based, human", "conditions": "4.0 J/cm^2", "description": "as §1, with “Cells were then treated with phthalocyanines 1, 2, 3 or ZnPcS4 with concentrations ranging from 0.01 to 100 µM and were incubated for 2 h before irradiated with 4.0 J/cm^2 of light filtered with Roscolux #26 Light Red (>580 nm) (Rosco, NY) membrane filter at a fluence rate of 7.5 mW/cm^2 for 10 min.” left out"}, "CAM vasculature": {"system": "CAM vasculature", "assay": "PDT-induced vascular occlusion in CAM model", "format": "in vivo, Lohmann Brown chicken", "conditions": "for Occlusion score: 10 nmol/embryo i.v., mean ± SEM of ten embryos, scale of Table 1", "description": "Freshly fertilized eggs from Lohmann Brown chicken variety (Hong Hing Sdn. Bhd, Selangor, Malaysia) were incubated with the narrow apex down in a 90° swinging Octagon 40DX incubator (Brinsea Products Inc., Standford, England) at 37°C and 65% relative humidity. On embryo development day (EDD) three, an eggshell opening of about 4 mm in diameter was bored at the apex and sealed with adhesive tape to avoid contamination and desiccation of the egg contents. The eggs were further incubated in stationary position with the apex upright until ready for use at EDD-9.\nFor vascular occlusion study, the egg opening was extended to ∼30 mm in diameter on EDD-9. Embryos were intravenously administered with a single bolus of 10 nmol/embryo of phthalocyanine in dosing vehicle (5% CrEL, 5% EtOH in saline) at the CAM main vasculature. One min after injection, a site with blood vessel diameter between 5–100 µm was irradiated with a light dose of 5 J/cm^2 or 10 J/cm^2. Irradiation was performed with light of 600–800 nm wavelength with a fluence rate of 11.5 mW/cm^2 over an irradiation area of 1.13 mm^2. Fluorescence angiograms were performed immediately to assess the PDT-induced vasculature damage. Blood vessels were perfused with 20 µl of 25 mg/ml FITC-dextran followed by injection of Indian ink into the extra-embryonic cavity to decrease the embryo’s interfering fluorescence from deeper located vessels. The vasculature network at the site of irradiation was illuminated by exciting FITC at 465–496 nm wavelengths on the fluorescence microscope. The vasculature network was imaged and the extent of damage induced by PDT was scored using a previously defined arbitrary damage scale from 1 to 5 as listed in Table 1 [26]. Generally, the damage on smaller vessels would have lower score whereas the damage on larger blood vessels would have higher score, depending on the size and degree of damage that was caused. At least 10 embryos were assessed for each treatment group."}, "[7]": {"design": "method as in earlier work", "conditions": "in DMSO; reference standard value; cited from earlier work"}, "[8]": {"design": "method as in PMID 11883602", "conditions": "in alcohol; reference standard; cited from earlier work"}}, "note": "pIC50: −log10 of the molar value.", "data": [{"compound": "tetrasulfonated zinc (II) phthalocyanine [ZnPcS4]", "values": [{"measurement": "ε", "setting": "[1]; DMSO", "value": "114 000 M^−1cm^−1"}, {"measurement": "λmax", "setting": "[1]; DMSO", "value": 676}, {"measurement": "ε", "setting": "[1]; Ethanol", "value": "27 000 M^−1cm^−1"}, {"measurement": "λmax", "setting": "[1]; Ethanol", "value": 666}, {"measurement": "ε", "setting": "[1]; PBS+2% Triton x-100", "value": "20 000 M^−1cm^−1"}, {"measurement": "λmax", "setting": "[1]; PBS+2% Triton x-100", "value": 606}, {"measurement": "ε", "setting": "[1]; PBS", "value": "23 000 M^−1cm^−1"}, {"measurement": "λmax", "setting": "[1]; PBS", "value": 606}, {"measurement": "log P", "setting": "[2]", "value": "−1.7±0.4"}, {"measurement": "cellular uptake (in words)", "setting": "HSC-2 cells", "value": "poorly taken up by cells"}, {"measurement": "pIC50", "setting": "[3]; 0 J/cm^2 (dark toxicity)", "value": "< 4.00"}, {"measurement": "pIC50", "setting": "[3]; 4.0 J/cm^2 (>580 nm)", "value": "< 4.00"}, {"measurement": "pIC50", "setting": "[4]; 0 J/cm^2 (dark toxicity)", "value": "< 4.00"}, {"measurement": "pIC50", "setting": "[4]; 4.0 J/cm^2 (>580 nm)", "value": "< 4.00"}, {"measurement": "pIC50", "setting": "[5]; 0 J/cm^2 (dark toxicity)", "value": "< 4.00"}, {"measurement": "pIC50", "setting": "[5]; 4.0 J/cm^2 (>580 nm)", "value": "< 4.00"}, {"measurement": "phototoxicity IC50, range over MCF-7, HCT-116 and HSC-2", "setting": "[6]; tested up to 100 µM", "value": "failed to yield determinable IC50 values"}, {"measurement": "loss of cell viability", "setting": "[6]; treatment concentrations of up to 100 µM", "value": "no significant loss of cell viability"}, {"measurement": "Occlusion score", "setting": "CAM vasculature; 5 J/cm^2, 600–800 nm", "value": "0 ± 0.0"}, {"measurement": "Occlusion score", "setting": "CAM vasculature; 10 J/cm^2, 600–800 nm", "value": "0 ± 0.2"}, {"measurement": "vascular occlusion effect (in words)", "setting": "CAM vasculature; 10 nmol/embryo, 5 J/cm^2", "value": "failed to demonstrate vascular occlusion effects"}, {"measurement": "vascular occlusion effect (in words)", "setting": "CAM vasculature; similar experimental conditions, light dose not stated at the place (abstract)", "value": "no detectable vascular occlusion"}, {"measurement": "φF (fluorescence quantum yield)", "setting": "[7]", "value": 0.07}]}, {"compound": "C=Cc1c(C)c2cc3nc(c4c5[nH]c(cc6nc(cc1[nH]2)C(C)=C6CC)c(C)c5C(=O)[C@@H]4C(=O)OC)[C@@H](CCC(=O)O)[C@@H]3C", "note": "[Pha, pheophorbide a]", "values": [{"measurement": "singlet oxygen quantum yield", "setting": "[8]", "value": 0.52}]}]}
